In one assay the target is T1, Seprase (Homo sapiens, UniProt Q12884).
T1 sequence (Q12884 1-760): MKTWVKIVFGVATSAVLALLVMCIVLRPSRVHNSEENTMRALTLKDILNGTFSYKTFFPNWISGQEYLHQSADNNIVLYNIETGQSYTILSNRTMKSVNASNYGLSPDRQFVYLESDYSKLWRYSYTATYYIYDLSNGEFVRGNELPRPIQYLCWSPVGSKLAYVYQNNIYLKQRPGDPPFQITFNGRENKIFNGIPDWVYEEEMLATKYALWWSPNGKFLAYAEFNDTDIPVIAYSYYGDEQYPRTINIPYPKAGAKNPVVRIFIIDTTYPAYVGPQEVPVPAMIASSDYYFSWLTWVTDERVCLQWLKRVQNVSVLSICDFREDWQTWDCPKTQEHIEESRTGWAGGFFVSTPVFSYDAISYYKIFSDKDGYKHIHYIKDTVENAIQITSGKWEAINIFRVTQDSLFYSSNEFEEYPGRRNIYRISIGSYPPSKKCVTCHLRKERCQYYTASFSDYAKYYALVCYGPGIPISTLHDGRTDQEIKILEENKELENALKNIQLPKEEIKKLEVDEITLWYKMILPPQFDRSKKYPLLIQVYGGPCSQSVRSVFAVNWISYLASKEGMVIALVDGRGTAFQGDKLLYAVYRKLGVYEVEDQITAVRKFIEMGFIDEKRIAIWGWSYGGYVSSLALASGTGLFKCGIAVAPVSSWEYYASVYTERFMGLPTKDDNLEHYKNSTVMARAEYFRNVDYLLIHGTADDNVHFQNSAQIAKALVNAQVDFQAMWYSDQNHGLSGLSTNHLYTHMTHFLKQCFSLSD
The experiment in a line: Seprase activity towards fluorogenic substrates. The conditions noted are these: compared with substrate Z-Gly-Pro-AMC. The format is biochemical. An excerpt: The substrate used for the test is Benzyloxycarbonyl (Z)-Gly-Pro-7-amino-4-methylcoumarin (AMC) [Z-Gly-Pro-AMC]. […] This substrate is for a completely different enzyme, namely DPPII.

Another assay has as its target T2, Prolyl Oligopeptidase (Homo sapiens, UniProt P48147).
T2 sequence (P48147 1-710): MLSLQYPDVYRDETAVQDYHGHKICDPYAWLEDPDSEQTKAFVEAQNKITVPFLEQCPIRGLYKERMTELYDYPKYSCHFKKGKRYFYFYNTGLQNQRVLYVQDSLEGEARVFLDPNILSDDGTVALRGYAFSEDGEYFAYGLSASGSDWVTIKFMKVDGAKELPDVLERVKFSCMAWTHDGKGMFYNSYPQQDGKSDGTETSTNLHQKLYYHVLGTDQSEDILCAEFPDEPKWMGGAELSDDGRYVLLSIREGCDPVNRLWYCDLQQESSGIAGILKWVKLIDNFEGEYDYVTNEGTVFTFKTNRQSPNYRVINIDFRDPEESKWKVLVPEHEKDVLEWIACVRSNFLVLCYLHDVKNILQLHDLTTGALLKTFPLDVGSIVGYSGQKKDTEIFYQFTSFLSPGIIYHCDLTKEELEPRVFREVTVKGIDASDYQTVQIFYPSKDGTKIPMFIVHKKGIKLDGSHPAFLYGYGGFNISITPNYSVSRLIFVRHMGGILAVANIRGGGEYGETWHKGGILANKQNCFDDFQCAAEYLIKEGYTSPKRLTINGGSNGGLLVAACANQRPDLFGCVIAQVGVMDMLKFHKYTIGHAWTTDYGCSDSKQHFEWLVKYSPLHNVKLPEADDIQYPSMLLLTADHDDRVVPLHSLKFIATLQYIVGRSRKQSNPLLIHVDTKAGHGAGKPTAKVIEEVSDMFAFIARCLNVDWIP

The target of assay [1] is T3, PO (Prolyl Oligopeptidase) (Homo sapiens, UniProt P48147).
T3 construct: from tissue; host or cells: serum
T3 sequence (P48147 1-710): T2 sequence (P48147 1-710)
The assay is described as follows: Fluorimetric Z-Gly-Pro-AMC assay in serum with PO inhibitor. The conditions noted are these: JTP-4819 at a concentration of 4×10^−6M in the assay; 100 μM Z-Gly-Pro-AMC, 37° C. The format is biochemical. As to the method: A 25 μl aliquot of serum was pre-incubated for 15 minutes at 37° C. with 5 μl of 2.5×10^−4M JTP-4819 in 10% v/v MeOH in a 96 well microtitre plate prior to substrate addition. Next, 100 μl of 100μM Z-Gly-Pro-AMC substrate in 4% MeOH was added to the sample and the microtitre plate was incubated at 37° C. for 60 mins. Reactions were terminated by the addition of 170 μl of 1.5M acetic acid. Blanks or negative controls were prepared by adding 170 μl of 1.5M acetic acid to 25 μl of enzyme sample prior to substrate addition and incubation at 37° C. for 60 mins. The assay is performed in triplicate and at three different times. […] This concentration is obtained by adding 5 μl of 2.5×10^−4 M JTP-4819 to the assay.
Fluorimetric analysis of these samples was achieved using a Perkin Elmer LS50 Fluorescence Spectrophotometer at excitation and emission wavelengths of 370 nm and 440 nm respectively. Excitation slit widths were maintained at 10 nm while emission slit widths were adjusted accordingly for the range being analysed.
End point measurements were allowed, as the enzyme assay was linear with respect to time and enzyme concentration up to 60 mins. Fluorimetric intensities observed were converted to nanomoles AMC released per minute per ml using the appropriate standard curve. Enzyme units were defined as nanomoles of AMC released per minute at 37° C.

[2] abbreviates: Prolyl Oligopeptidase specific inhibitors, Table 5, Bacterial Inhibitor; cited from earlier work.
Where [3] appears, read: Prolyl Oligopeptidase specific inhibitors, Table 5; read-out: Potency Ki; cited from earlier work.
[4] abbreviates: Prolyl Oligopeptidase specific inhibitors, Table 5; read-out: Potency IC50; cited from earlier work.

We go through 13 compounds from patent publication US20080213815A1, “DIAGNOSING BREAST CANCER BY SEPRASE LEVEL” (DUBLIN CITY UNIVERSITY, priority 2007, published 2008).

Where two headings read alike, the source gives them in different places. Where a SMILES comes first, the peptide text is derived from it. The star is where a group is joined. AFC = O=c1cc(C(F)(F)F)c2ccc(N*)cc2o1

In the case of `C[C@H](N)C(=O)N1CCC[C@H]1C(=O)Nc1ccc2c(C(F)(F)F)cc(=O)oc2c1` [Ala-Pro-7-amino-4-trifluoromethylcoumarin] (H-Ala-Pro-{AFC}), on Seprase, the “Seprase activity towards substrate” value is on record as “markedly less activity”.
Consider `CC(C)CC/C=C/C(=O)NC1CCCNC(=O)C(CC(C)C)NC(=O)C(=O)C(C)NC1=O` (stereo not drawn) [Eurystatin A], for which, at Prolyl Oligopeptidase (setting [2]), the “Potency IC50” value is “IC50 = 0.004 μg/mL”.
On to `CCC(C)CC/C=C/C(=O)NC1CCCNC(=O)C(CC(C)C)NC(=O)C(=O)C(C)NC1=O` (stereo not drawn) [Eurystatin B], for which, on Prolyl Oligopeptidase (setting [2]), the “Potency IC50” value is on record as “IC50 = 0.002 μg/mL”.
As a reminder, the Ki is the equilibrium dissociation constant of an inhibitor or competing ligand from its target. `CC(NC(=O)OCC1c2ccccc2-c2ccccc21)C(=O)N1CCCC1C#N` (stereo not drawn) [Fmoc-Ala-Pro-CN]: on Prolyl Oligopeptidase (setting [3]), the Ki was 5 nM.
As to `N#CC1CCCN1C(=O)C1CCCN1C(=O)OCC1c2ccccc2-c2ccccc21` (stereo not drawn) [Fmoc-Pro-Pro-CN], on Prolyl Oligopeptidase (setting [3]), the Ki is 5 nM.
In general, IC50 refers to the point on the concentration scale where inhibition reaches its midpoint. Turning to `O=C(CO)[C@@H]1CCCN1C(=O)[C@@H]1CCCN1C(=O)NCc1ccccc1` [JTP-4819], the IC50 on Prolyl Oligopeptidase (setting [4]) was 0.83 nM. The Ki at Prolyl Oligopeptidase (setting [3]) is 0.045 nM. Besides, in assay [1], the “PO sensitivity to inhibitor” value is reported as “sensitive”.
On to `O=C[C@@H]1CCCN1C(=O)CCC(=O)NCc1ccc(Cl)cc1` [ONO-1603], for which the IC50 at Prolyl Oligopeptidase (setting [4]) is 57 nM.
With `COc1cccc2c1C(=O)c1ccc3c(c1C2=O)C(=O)C[C@@H](C)[C@H]3O` [SNA-8073-B], at Prolyl Oligopeptidase (setting [3]), the Ki is 8000 nM.
Take `CN[C@@H]1C[C@H]2O[C@@](C)([C@@H]1OC)n1c3ccccc3c3c4c(c5c6ccccc6n2c5c31)C(=O)NC4` [Staurosporine]: the inhibitory constant (Ki) on Prolyl Oligopeptidase (read-out: Potency Ki; Prolyl Oligopeptidase specific inhibitors, Table 5; cited from earlier work) was 700 nM.
Take `O=CC1CCCN1C(=O)C1Cc2ccccc2N1C(=O)OCc1ccccc1` (stereo not drawn) [Z-Indolinyl-Prolinal]: the inhibition constant Ki on Prolyl Oligopeptidase (setting [3]) is 2.4 nM.
Consider `O=C(C1CCCN1C(=O)OCc1ccccc1)N1CCC(F)C1` (stereo not drawn) [Z-Pro-3-fluoropyrrolidine], for which, on Prolyl Oligopeptidase (setting [3]), the inhibition constant (Ki) was 0.8 nM.
For the compound Postatin, the “Potency IC50” value on Prolyl Oligopeptidase (setting [2]) is “IC50 = 0.03 μg/mL”.
For the compound Propeptin, the inhibitory constant (Ki) at Prolyl Oligopeptidase (setting [3]) is 700 nM.
